Measured values taken from patent US20250161245A1, “A MIXTURE OF UREA, BIURET AND N-CONTAINING BY-PRODUCTS CREATED DURING BIURET PRODUCTION AS A DIETARY NON-PROTEIN NITROGEN-SOURCE FOR RUMINANTS AND USES THEREOF” (Yara International ASA, priority 2022, published 2025).

Tests used:
[1] = tested on: ruminal fluid; assay: in vitro dry and organic matter digestibility, batch culture (Example 4); type: cell-based, Angus crossbred steers; conditions: 24 hours of incubation, corn silage-based diet
Procedure: (§1) The in vitro incubations were conducted on three separate days (replicates). A representative sample of digesta was collected from different places in the rumen of ruminally cannulated steers and strained through 4 layers of cheesecloth, placed in pre-warmed thermos containers, and transported to the laboratory within 30 minutes after the collection. In the laboratory, the ruminal fluid from the two steers was maintained under constant CO2-flux and was combined in equal proportions. This combined ruminal fluid was mixed with McDougall's buffer (McDougall, 1948) with and without 0.077 g/liter of 10 wt. % ammonium sulfate enriched with ^15N in relation 1:4, and it was used as an inoculum. Two bottles of 500 ml fitted with a side arm and a rubber septum were incubated per treatment. […] At the end of the 24 hours incubation, the final pH was recorded, the bottles were placed on ice to prevent further microbial fermentation and two 10-ml samples were collected and acidified by adding 20 μl of a 20 vol/vol % of H2SO4-solution and were frozen at minus 20° C. until further analysis. […]
The concentration of ammonia-N at 12 and 24 hours in the incubation fluid was measured after centrifuging at 10,000×g for 15 minutes at 4° C. using an Avanti J-E centrifuge from Beckman Coulter® Incorporated. […]

[2] = tested on: rumen microbes; assay: microbial protein synthesis, 15N batch culture (Example 4); type: cell-based, Angus crossbred steers; conditions: 24 hours of incubation
Procedure: as §1
The total nitrogen (N) and the isotopic supplement were measured in the whole content and the bacterial pellet by an isotopic ratio mass spectrometry using a Vario Micro cube from Elementar Analyzer System GmbH. […]

What does the source list for `NC(N)=O` [Urea, urea]?
IVDMD [1]: 45.08%; IVOMD [1]: 65.38%; Bacteria N [2]: 67.34 mg; EMPS [2]: 34.46 g of bacteria N/kg of OM truly digested
